Target: T1, PI3Kγ (Homo sapiens, UniProt P48736)
T1 construct: HA; made in house; host or cells: Spodoptera frugiperda (Sf9) cells, baculovirus coinfection
Experiment: PI3Kγ in vitro kinase assay (32P-ATP, PIP2 lipid micelles, filter plate)
Format: biochemical
Conditions: purified recombinant p101/p110γ protein with G protein β1/γ2 subunits; 20 μM ATP; 25 μM PIP2; 20 minutes at room temperature
Experimental: Spodtera frugiperda cells, grown in ESF921 media, were coinfected with baculovirus expressing a glu-tagged p101 and baculovirus expressing an HA-tagged p110γ, at a 3:1 ratio of p101 baculovirus to p110γ baculovirus. Sf9 cells were grown to 1×10^7 total cells/mL in 10 L bioreactors and harvested 48-72 hours post infection. Samples of infected cells were then tested for expression of p101/p110γ PI3 kinase by immunoprecipitation and Western Blot analysis methods (see below). To purify PI3Kγ, 4 volumes of room temperature hypotonic lysis buffer (1 mM MgCl2, 1 mM DTT, 5 mM EGTA, 1 mM Pefabloc, 0.5 μM aprotinin, 5 μM leupeptin, 2 μM pepstatin, 5 μM E64, pH 8) per gram of cell paste, was poured onto frozen cell pellets with stirring, then lysed in a nitrogen “bomb” at 400 psi (599HC […], Parr Instrument Co, Moline, Ill.). NaCl was added to 150 mM, and sodium cholate was added to 1% and mixed for another 45 minutes. The lysates were clarified by centrifugation for 25 minutes at 14,000 rpm. The lysates were then loaded over anti-glu-linked Protein-G Sepaharose beads (Covance Research Products, Richmond, Calif.) using 20 mL resin/50 g cell paste. The column was washed with 15 volumes of wash buffer (1 mM DTT, 0.2 mM EGTA, 1 mM Pefabloc, 0.5 μM aprotinin, 5 μM leupeptin, 2 μM pepstatin, 5 μM E64, 150 mM NaCl, 1% sodium cholate, pH 8). PI3Kγ was eluted with 6 column volumes of wash buffer that contain 100 μg/mL of a peptide that competes for binding of the glu tag. The column fractions with the eluted protein (determined by taking OD280 readings) were collected and dialyzed in 0.2 mM EGTA, 1 mM DTT, 1 mM Pefabloc, 5 μM leupeptin, 0.5% sodium cholate, 150 mM NaCl, and 50% glycerol, pH 8. The fractions were stored at -80° C. until further use. Spodtera frugiperda cells were coinfected with baculovirus expressing a glu-tagged G protein β1 and baculovirus expressing a […], at a 1:1 ratio of glu-tagged G protein β1 baculovirus to G protein β2 baculovirus. Sf9 cells are grown in 10 L bioreactors and harvested 48-72 hours post infection. Samples of infected cells were tested for G protein β1/β2 expression by Western Blot analysis, as described below. Cell lysates were homogenized and loaded onto a column of glu-tagged beads as in Biological Example 1 and competed off the column with a glu peptide and processed as described in Biological Example 1. The inhibitory properties of the compounds in Table 1 were assayed in an in vitro PI3K assay. In a 96-well polypropylene plate, each well was spotted with […] of 50 times the desired final concentration of compound in DMSO. Purified recombinant p101/p110γ protein (0.03 μg; 2.7 nM) and G protein β1/γ2 subunits (0.09 μg; 57.7 nM) for each reaction was combined in the assay buffer (30 mM HEPES, 100 mM NaCl, 1 mM EGTA, and 1 mM DTT). ATP and [γ-^32P-ATP] (0.09 μCi) were added to this mixture so that the final ATP concentration in the reaction was 20 μM. Lipid micelles were formed by sonicating phosphatidylinositol4,5-diphosphate (PIP2), phosphatidylethanolamine (PE), and Na-cholate in the assay buffer for 10 minutes, adding MgCl2 and incubating on ice for 20 minutes, for final concentrations of 25 μM PIP2, 300 μM PE, 0.02% Na-cholate, and 10 mM MgCl2 in the reaction. The reactions were started by adding equal volumes lipid and enzyme mixture in a total volume of 50 μL, allowed to run for 20 minutes at room temperature, and stopped with 100 μL 75 mM H3PO4. The lipid product was transferred to a glass fiber filter plate and washed with 75 mM H3PO4 several times. The presence of radioactive lipid product (PIP3) was measured by adding Wallac Optiphase mix to each well and counting in a Wallac 1450 Trilux plate reader (PerkinElmer Life Sciences Inc., Boston, Mass. 02118). The IC50 for each compound tested is reported in μM in Table 1: […]

T1 sequence (P48736 whole entry, species assumed): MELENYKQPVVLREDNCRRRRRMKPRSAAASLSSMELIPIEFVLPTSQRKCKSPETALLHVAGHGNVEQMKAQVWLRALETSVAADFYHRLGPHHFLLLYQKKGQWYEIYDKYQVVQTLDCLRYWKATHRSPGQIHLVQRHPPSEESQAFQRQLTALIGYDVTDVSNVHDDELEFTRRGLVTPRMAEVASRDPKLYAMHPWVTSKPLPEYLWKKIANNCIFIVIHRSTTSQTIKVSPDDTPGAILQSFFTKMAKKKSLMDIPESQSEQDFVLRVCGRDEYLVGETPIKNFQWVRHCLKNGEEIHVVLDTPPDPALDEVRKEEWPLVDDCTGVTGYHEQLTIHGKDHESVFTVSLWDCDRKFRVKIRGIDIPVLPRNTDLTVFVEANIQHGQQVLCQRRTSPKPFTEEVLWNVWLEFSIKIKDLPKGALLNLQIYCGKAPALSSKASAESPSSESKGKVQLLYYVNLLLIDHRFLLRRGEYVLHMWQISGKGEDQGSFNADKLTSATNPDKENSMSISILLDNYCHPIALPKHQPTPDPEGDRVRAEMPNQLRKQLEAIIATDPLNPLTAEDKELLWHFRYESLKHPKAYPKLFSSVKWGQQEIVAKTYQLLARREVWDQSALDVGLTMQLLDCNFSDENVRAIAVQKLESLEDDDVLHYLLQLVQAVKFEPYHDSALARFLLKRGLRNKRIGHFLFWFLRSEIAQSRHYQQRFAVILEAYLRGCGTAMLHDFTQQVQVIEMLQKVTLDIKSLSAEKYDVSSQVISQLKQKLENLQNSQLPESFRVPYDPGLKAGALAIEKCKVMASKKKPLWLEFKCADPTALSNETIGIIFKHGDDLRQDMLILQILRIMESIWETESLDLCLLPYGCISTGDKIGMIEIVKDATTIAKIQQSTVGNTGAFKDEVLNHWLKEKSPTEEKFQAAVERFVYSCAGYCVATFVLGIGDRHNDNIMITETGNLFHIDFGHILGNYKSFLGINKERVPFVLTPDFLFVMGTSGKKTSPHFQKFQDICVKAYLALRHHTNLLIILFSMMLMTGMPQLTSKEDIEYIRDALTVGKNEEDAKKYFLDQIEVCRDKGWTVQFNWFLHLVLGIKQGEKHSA
T1 sequence (Q8WYR1 whole entry partner, species assumed): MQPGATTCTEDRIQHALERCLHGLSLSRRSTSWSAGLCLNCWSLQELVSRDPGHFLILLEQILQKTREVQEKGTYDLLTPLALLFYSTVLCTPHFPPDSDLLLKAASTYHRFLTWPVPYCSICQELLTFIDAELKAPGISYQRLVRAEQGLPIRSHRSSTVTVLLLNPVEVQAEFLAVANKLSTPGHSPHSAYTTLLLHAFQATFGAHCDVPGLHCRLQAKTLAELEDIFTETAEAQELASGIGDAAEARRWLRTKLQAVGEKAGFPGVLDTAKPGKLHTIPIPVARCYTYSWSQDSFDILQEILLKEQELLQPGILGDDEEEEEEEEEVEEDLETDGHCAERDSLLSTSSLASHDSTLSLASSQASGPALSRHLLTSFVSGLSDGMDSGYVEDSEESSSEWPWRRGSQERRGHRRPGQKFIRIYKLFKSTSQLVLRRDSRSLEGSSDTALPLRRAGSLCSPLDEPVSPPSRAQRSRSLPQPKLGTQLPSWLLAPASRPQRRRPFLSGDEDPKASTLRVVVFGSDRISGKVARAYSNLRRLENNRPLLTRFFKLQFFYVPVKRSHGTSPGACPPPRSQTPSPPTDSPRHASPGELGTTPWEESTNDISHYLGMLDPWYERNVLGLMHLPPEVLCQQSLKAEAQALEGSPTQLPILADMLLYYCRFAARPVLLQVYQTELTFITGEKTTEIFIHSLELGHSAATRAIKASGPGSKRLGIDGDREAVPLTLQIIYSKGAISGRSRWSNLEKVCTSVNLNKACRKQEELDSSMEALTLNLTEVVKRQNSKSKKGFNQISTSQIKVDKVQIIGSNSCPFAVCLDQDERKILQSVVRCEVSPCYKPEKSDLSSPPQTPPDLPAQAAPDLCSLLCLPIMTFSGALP

Compound | IC50
3-(2,3-dichloro-phenylsulfanyl)-5-methoxy-benzo[b]thiophene-2-carboxylic acid(1H-tetrazol-5-yl)-amide [Example 25] | 3450 nM
3-(3-Chloro-phenylsulfanyl)-5-methoxy-6-methyl-benzo[b]thiophene-2-carboxylic acid(1H-tetrazol-5-yl)-amide [Example 33] | 170 nM
3-[2-(Acetyl-methyl-amino)-1-phenyl-propylsulfanyl]-6-methoxy-5-methyl-benzo[b]thiophene-2-carboxylic acid(1H-tetrazol-5-yl)-amide [Example 43] | 215 nM
5,6-dimethoxy-3-phenethylsulfanyl-benzo[b]thiophene-2-carboxylic acid(1H-tetrazol-5-yl)-amide [Example 13] | 522 nM
5-Ethoxy-3-phenethylsulfanyl-benzo[b]thiophene-2-carboxylic acid(1H-tetrazol-5-yl)-amide [Example 52] | 2850 nM
5-methoxy-3-(2-methyl-furan-3-ylsulfanyl)-benzo[b]thiophene-2-carboxylic acid(1H-tetrazol-5-yl)-amide [Example 16] | 2210 nM
COc1cc2sc(C(=O)Nc3nnn[nH]3)c(Sc3ccccc3)c2cc1OC [Example 1, 5,6-Dimethoxy-3-phenylsulfanyl-benzo[b]thiophene-2-carboxylic acid(1H-tetrazol-5-yl)-amide] | 60 nM
COc1cc2c(Sc3ccccc3)c(C(=O)Nc3nnn[nH]3)sc2cc1C [Example 2, 5-Methoxy-6-methyl-3-phenylsulfanyl-benzo[b]thiophene-2-carboxylic acid(1H-tetrazol-5-yl)-amide] | 177 nM
CCOc1ccc2sc(C(=O)Nc3nnn[nH]3)c(Sc3ccccc3)c2c1 [Example 3, 5-Ethoxy-3-phenylsulfanyl-benzo[b]thiophene-2-carboxylic acid (1H-tetrazol-5-yl)-amide] | 253 nM
COc1ccc2sc(C(=O)Nc3nnn[nH]3)c(Sc3ccc(O)cc3)c2c1 [Example 4, 3-(4-hydroxy-phenylsulfanyl)-5-methoxy-benzo[b]thiophene-2-carboxylic acid(1H-tetrazol-5-yl)-amide] | 2770 nM
COc1cc2sc(C(=O)Nc3nnn[nH]3)c(Sc3ccccc3C)c2cc1OC [Example 5, 5,6-dimethoxy-3-o-tolysulfanyl-benzo[b]thiophene-2-carboxylic acid(1H-tetrazol-5-yl)-amide] | 1270 nM
CCc1ccccc1Sc1c(C(=O)Nc2nnn[nH]2)sc2cc(OC)c(OC)cc12 [Example 6, 3-(2-ethyl-phenylsulfanyl)-5,6-dimethoxy-benzo[b]thiophene-2-carboxylic acid(1H-tetrazol-5-yl)-amide] | 1170 nM
COc1cc2sc(C(=O)Nc3nnn[nH]3)c(Sc3cccc(Cl)c3)c2cc1OC [Example 7, 3-(3-chloro-phenylsulfanyl)-5,6-dimethoxy-benzo[b]thiophene-2-carboxylic acid(1H-tetrazol-5-yl)-amide] | 1990 nM
COc1cc2sc(C(=O)Nc3nnn[nH]3)c(Sc3ccc(Cl)cc3)c2cc1OC [Example 8, 3-(4-chloro-phenylsulfanyl)-5,6-dimethoxy-benzo[b]thiophene-2-carboxylic acid(1H-tetrazol-5-yl)-amide] | 3720 nM
COc1cc2sc(C(=O)Nc3nnn[nH]3)c(Sc3ccc(C)cc3C)c2cc1OC [Example 9, 3-(2,4-dimethyl-phenylsulfanyl)-5,6-dimethoxy-benzo[b]thiophene-2-carboxylic acid(1H-tetrazol-5-yl)-amide] | 2800 nM
COc1cc2sc(C(=O)Nc3nnn[nH]3)c(Sc3cccc(Cl)c3Cl)c2cc1OC [Example 10, 3-(2,3-dichloro-phenylsulfanyl)-5,6-dimethoxy-benzo[b]thiophene-2-carboxylic acid(1H-tetrazol-5-yl)-amide] | 1130 nM
COc1cc2sc(C(=O)Nc3nnn[nH]3)c(Sc3ccc(C)c(C)c3)c2cc1OC [Example 11, 3-(3,4-dimethyl-phenylsulfanyl)-5,6-dimethoxy-benzo[b]thiophene-2-carboxylic acid(1H-tetrazol-5-yl)-amide] | 2070 nM
COc1cc2sc(C(=O)Nc3nnn[nH]3)c(Sc3ccc(Cl)c(Cl)c3)c2cc1OC [Example 12, 3-(3,4-dichloro-phenylsulfanyl)-5,6-dimethoxy-benzo[b]thiophene-2-carboxylic acid(1H-tetrazol-5-yl)-amide] | 1230 nM
COc1cc(Sc2c(C(=O)Nc3nnn[nH]3)sc3cc(OC)c(OC)cc23)ccc1O [Example 14, 3-(4-hydroxy-3-methoxy-phenylsulfanyl)-5,6-dimethoxy-benzo[b]thiophene-2-carboxylic acid(1H-tetrazol-5-yl)-amide] | 2310 nM
COc1ccc(OC)c(Sc2c(C(=O)Nc3nnn[nH]3)sc3cc(OC)c(OC)cc23)c1 [Example 15, 3-(2,5-dimethoxy-phenylsulfanyl)-5,6-dimethoxy-benzo[b]thiophene-2-carboxylic acid(1H-tetrazol-5-yl)-amide] | 620 nM
COc1ccc2sc(C(=O)Nc3nnn[nH]3)c(Sc3ccccc3)c2c1 [Example 17, 5-methoxy-3-phenylsulfanyl-benzo[b]thiophene-2-carboxylic acid(1H-tetrazol-5-yl)-amide] | 2650 nM
COc1ccc2sc(C(=O)Nc3nnn[nH]3)c(Sc3ccccc3C)c2c1 [Example 18, 5-methoxy-3-o-tolysulfanyl-benzo[b]thiophene-2-carboxylic acid (1H-tetrazol-5-yl)-amide] | 470 nM
COc1ccc2sc(C(=O)Nc3nnn[nH]3)c(Sc3ccccc3Cl)c2c1 [Example 19, 3-(2-chloro-phenylsulfanyl)-5-methoxy-benzo[b]thiophene-2-carboxylic acid(1H-tetrazol-5-yl)-amide] | 2220 nM
COc1ccc2sc(C(=O)Nc3nnn[nH]3)c(Sc3ccccc3Br)c2c1 [Example 20, 3-(2-bromo-phenylsulfanyl)-5-methoxy-benzo[b]thiophene-2-carboxylic acid(1H-tetrazol-5-yl)-amide] | 2920 nM
COc1ccc2sc(C(=O)Nc3nnn[nH]3)c(Sc3cccc(Cl)c3)c2c1 [Example 21, 3-(3-chloro-phenylsulfanyl)-5-methoxy-benzo[b]thiophene-2-carboxylic acid(1H-tetrazol-5-yl)-amide] | 4310 nM
COc1cccc(Sc2c(C(=O)Nc3nnn[nH]3)sc3ccc(OC)cc23)c1 [Example 22, 5-methoxy-3-(3methoxyphenylsulfanyl)-benzo[b]thiophene-2-carboxylic acid(1H-tetrazol-5-yl)-amide] | 2930 nM
COc1ccc2sc(C(=O)Nc3nnn[nH]3)c(Sc3ccc(Cl)cc3)c2c1 [Example 23, 3-(4-chloro-phenylsulfanyl)-5-methoxy-benzo[b]thiophene-2-carboxylic acid(1H-tetrazol-5-yl)-amide] | 4930 nM
COc1ccc(OC)c(Sc2c(C(=O)Nc3nnn[nH]3)sc3ccc(OC)cc23)c1 [Example 24, 3-(2,5-dimethoxy-phenylsulfanyl)-5-methoxy-benzo[b]thiophene-2-carboxylic acid(1H-tetrazol-5-yl)-amide] | 1220 nM
COc1ccc2sc(C(=O)Nc3nnn[nH]3)c(SCCc3ccccc3)c2c1 [Example 26, 5-methoxy-3-phenethylsulfanyl-benzo[b]thiophene-2-carboxylic acid(1H-tetrazol-5-yl)-amide] | 1600 nM

From patent US20040248953A1, “3-Arylsulfanyl and 3-heteroarylsulfanyl substituted benzo[b]thiophenes as therapeutic agents” (priority 2003, published 2004)
